In PubChem BioAssay AID330 (DTP/NCI, 2004) one finds T/C data, which are given here for 19 molecules.

Each structure is given as a SMILES string. Several values for one entry are separate records, joined by “and”; a condition that tells them apart may be missing. Equal entries are not always repeated. Inconclusive results and toxic doses are left out.

This assay deals with P388 leukemia ip, CD2F1 mice, survival T/C. The assay is described as follows: NCI In Vivo Anticancer Drug Screen. Data for tumor model P388 Leukemia (intraperitoneal) in CD2F1 (CDF1) mice. The note with it: endpoint: median survival time, higher = longer survival. The method in brief:
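Mice carrying the transplanted tumor received test compound or vehicle. Survival was recorded in each group, and the value is the treated-group measurement divided by that of the vehicle-treated control group.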

The mark [1] stands for this setting: dose: 100.0 mg/kg/injection, schedule: Q04DX003 (ip), vehicle: saline.
The mark [2] stands for this setting: dose: 50.0 mg/kg/injection, schedule: Q01DX009 (ip), vehicle: saline.
[3] abbreviates: dose: 100.0 mg/kg/injection, schedule: Q01DX009 (ip), vehicle: saline.
Setting [4] is: dose: 200.0 mg/kg/injection, schedule: Q01DX009 (ip), vehicle: saline.
Setting [5] is: dose: 50.0 mg/kg/injection, schedule: Q01DX005 (ip), vehicle: saline with Tween-80.
[6] abbreviates: dose: 50.0 mg/kg/injection, schedule: Q01DX005 (ip), vehicle: Klucel (hydroxypropylcellulose) (HPC).
Where [7] appears, read: dose: 100.0 mg/kg/injection, schedule: Q01DX005 (ip), vehicle: Klucel (hydroxypropylcellulose) (HPC).
Where [8] appears, read: dose: 200.0 mg/kg/injection, schedule: Q01DX005 (ip), vehicle: Klucel (hydroxypropylcellulose) (HPC).
[9] abbreviates: dose: 60.0 mg/kg/injection, schedule: Q01DX005 (ip), vehicle: Klucel (hydroxypropylcellulose) (HPC).
Setting [10] is: dose: 120.0 mg/kg/injection, schedule: Q01DX005 (ip), vehicle: Klucel (hydroxypropylcellulose) (HPC).
[11] abbreviates: dose: 240.0 mg/kg/injection, schedule: Q01DX005 (ip), vehicle: Klucel (hydroxypropylcellulose) (HPC).

Take `ClCCN(CCCl)c1ccc(/C=N/Nc2c3c(nc4ccccc24)CCCC3)cc1`: the T/C reads like this: (dose: 0.39 mg/kg/injection, schedule: Q01DX009 (ip), vehicle: Klucel (hydroxypropylcellulose) (HPC)) 95 % of control; (dose: 0.78 mg/kg/injection, schedule: Q01DX009 (ip), vehicle: Klucel (hydroxypropylcellulose) (HPC)) 108 % of control; (dose: 1.56 mg/kg/injection, schedule: Q01DX009 (ip), vehicle: Klucel (hydroxypropylcellulose) (HPC)) 95 % of control; (dose: 12.5 mg/kg/injection, schedule: Q01DX009 (ip), vehicle: Klucel (hydroxypropylcellulose) (HPC)) 90 % of control.
For the molecule `O=C(O)C1CCC[N-]1.[Cl][Pt][Cl]` (stereo not drawn), the T/C (dose: 25.0 mg/kg/injection, schedule: Q04DX003 (ip), vehicle: water) is 110 % of control; the T/C (dose: 50.0 mg/kg/injection, schedule: Q04DX003 (ip), vehicle: water) was 94 % of control; the T/C under setting [1] is 157 % of control; the T/C (dose: 150.0 mg/kg/injection, schedule: Q04DX003 (ip), vehicle: saline) is 157 % of control.
As for `CC1C(O)CC23COC(=O)C2=CCCC3C1(C)CCC1COC(=O)C1` (stereo not drawn), the T/C is 101 % of control (dose: 9.38 mg/kg/injection, schedule: Q01DX005 (ip), vehicle: Klucel (hydroxypropylcellulose) (HPC)); 90 % of control (dose: 18.75 mg/kg/injection, schedule: Q01DX005 (ip), vehicle: Klucel (hydroxypropylcellulose) (HPC)); 105 % of control (dose: 37.5 mg/kg/injection, schedule: Q01DX005 (ip), vehicle: Klucel (hydroxypropylcellulose) (HPC)); 117 % of control (dose: 75.0 mg/kg/injection, schedule: Q01DX005 (ip), vehicle: Klucel (hydroxypropylcellulose) (HPC)).
Turning to `Cn1c(N)c(N=Nc2cccnc2)c(=O)n(C)c1=O`, the T/C (dose: 100.0 mg/kg/injection, schedule: Q01DX001 (ip), vehicle: saline with Tween-80) was 95 % of control; the T/C (dose: 200.0 mg/kg/injection, schedule: Q01DX001 (ip), vehicle: saline with Tween-80) was 98 % of control; the T/C (dose: 400.0 mg/kg/injection, schedule: Q01DX001 (ip), vehicle: saline with Tween-80) was 95 % of control.
With `O=C(O)CNCc1ccc(F)cc1`, the T/C was 98 % of control under setting [1]; 103 % of control (dose: 200.0 mg/kg/injection, schedule: Q04DX003 (ip), vehicle: saline); 102 % of control (dose: 400.0 mg/kg/injection, schedule: Q04DX003 (ip), vehicle: saline); 100 % of control (dose: 600.0 mg/kg/injection, schedule: Q04DX003 (ip), vehicle: saline).
As to `CC1=CC(=C2C(=O)c3ccccc3C2=O)C=CN1CCCN1CCCCC1`, the T/C under setting [2] is 103 % of control and 119 % of control; the T/C under setting [3] was 101 % of control and 106 % of control; the T/C under setting [4] is 106 % of control and 123 % of control; the T/C (dose: 400.0 mg/kg/injection, schedule: Q01DX009 (ip), vehicle: saline) was 100 % of control.
Consider `CCCCCCCCCCCC(=O)NCC(=O)NC1CC(OC2CC(O)(C(C)=O)Cc3c(O)c4c(c(O)c32)C(=O)c2c(OC)cccc2C4=O)OC(C)C1O` (stereo not drawn), for which the T/C is, setting by setting: (dose: 0.75 mg/kg/injection, schedule: Q01DX009 (ip), vehicle: other) 107 % of control; (dose: 1.5 mg/kg/injection, schedule: Q01DX009 (ip), vehicle: other) 108 % of control; (dose: 3.0 mg/kg/injection, schedule: Q01DX009 (ip), vehicle: other) 112 % of control; (dose: 6.0 mg/kg/injection, schedule: Q01DX009 (ip), vehicle: other) 116 % of control; (dose: 12.0 mg/kg/injection, schedule: Q01DX009 (ip), vehicle: other) 99 % of control.
Consider `C#CC(C)(CC)OC(=O)c1ccccc1C(=O)O` (stereo not drawn), for which the T/C was 100 % of control under setting [2], 104 % of control under setting [3] and 95 % of control under setting [4].
In the case of `COc1ccccc1N/N=c1/c2n(-c3ccc(Cl)cc3)c(=S)n(-c3ccccn3)c1=NCCN=2`, the T/C by setting is: (dose: 12.5 mg/kg/injection, schedule: Q01DX005 (ip), vehicle: saline with Tween-80) 97 % of control; (dose: 25.0 mg/kg/injection, schedule: Q01DX005 (ip), vehicle: saline with Tween-80) 100 % of control; under setting [5], 102 % of control and 94 % of control.
As to `CS(=O)(=O)OCCCCCCCCCCCN1CCOCC1`, the T/C was 98 % of control under setting [5] and 94 % of control (dose: 100.0 mg/kg/injection, schedule: Q01DX005 (ip), vehicle: saline with Tween-80).
On to `O=c1cccccc1[O][Sn]([Cl])([Cl])[O]c1cccccc1=O`, for which the T/C is 97 % of control (dose: 25.0 mg/kg/injection, schedule: Q01DX001 (ip), vehicle: Klucel (hydroxypropylcellulose) (HPC)); 99 % of control (dose: 50.0 mg/kg/injection, schedule: Q01DX001 (ip), vehicle: Klucel (hydroxypropylcellulose) (HPC)); 99 % of control (dose: 100.0 mg/kg/injection, schedule: Q01DX001 (ip), vehicle: Klucel (hydroxypropylcellulose) (HPC)).
For `COc1cccc2c1C(=O)c1c(O)c3c(c(O)c1C2=O)CC(O)(C1(C)OCCO1)CC3O` (stereo not drawn), the T/C is, setting by setting: (dose: 3.13 mg/kg/injection, schedule: Q04DX003 (ip), vehicle: distilled water + Tween-80) 99 % of control; (dose: 6.25 mg/kg/injection, schedule: Q04DX003 (ip), vehicle: distilled water + Tween-80) 99 % of control; (dose: 12.5 mg/kg/injection, schedule: Q04DX003 (ip), vehicle: distilled water + Tween-80) 99 % of control; (dose: 25.0 mg/kg/injection, schedule: Q04DX003 (ip), vehicle: distilled water + Tween-80) 96 % of control; (dose: 50.0 mg/kg/injection, schedule: Q04DX003 (ip), vehicle: distilled water + Tween-80) 98 % of control; (dose: 100.0 mg/kg/injection, schedule: Q04DX003 (ip), vehicle: distilled water + Tween-80) 98 % of control. Also, the T/C by setting is: (dose: 200.0 mg/kg/injection, schedule: Q04DX003 (ip), vehicle: distilled water + Tween-80) 106 % of control; (dose: 400.0 mg/kg/injection, schedule: Q04DX003 (ip), vehicle: distilled water + Tween-80) 106 % of control.
`CC(=O)OCc1c(-c2ccccc2)sc2ccccc2c1=O`: the T/C by setting is: under setting [6], 96 % of control; under setting [7], 102 % of control; under setting [8], 97 % of control.
Consider `Nc1nc(Nc2ccccc2)nc(SCc2ccccc2)n1`, for which the T/C reads like this: (dose: 25.0 mg/kg/injection, schedule: Q01DX009 (ip), vehicle: saline with Tween-80) 99 % of control; (dose: 50.0 mg/kg/injection, schedule: Q01DX009 (ip), vehicle: saline with Tween-80) 90 % of control; (dose: 100.0 mg/kg/injection, schedule: Q01DX009 (ip), vehicle: saline with Tween-80) 88 % of control.
As to `CC(C)(C)c1cc(C(C)(C)C)c(O)c(Br)c1O`, the T/C by setting is: (dose: 50.0 mg/kg/injection, schedule: Q01DX009 (ip), vehicle: Klucel (hydroxypropylcellulose) (HPC)) 101 % of control; (dose: 100.0 mg/kg/injection, schedule: Q01DX009 (ip), vehicle: Klucel (hydroxypropylcellulose) (HPC)) 102 % of control; (dose: 200.0 mg/kg/injection, schedule: Q01DX009 (ip), vehicle: Klucel (hydroxypropylcellulose) (HPC)) 101 % of control.
With `CC(C)(C)NC(=O)NS(=O)(=O)c1cccnc1Sc1ccccc1Cl`, the T/C reads like this: under setting [9], 107 % of control; under setting [10], 105 % of control; under setting [11], 99 % of control.
Take `FC(F)(F)C(F)(F)C(F)(F)C(F)(F)C(F)(F)C(F)(F)C[CH2][Sn]([Cl])([Cl])[CH2]CC(F)(F)C(F)(F)C(F)(F)C(F)(F)C(F)(F)C(F)(F)F`: the T/C was 118 % of control (dose: 60.0 mg/kg/injection, schedule: Q01DX005 (ip), vehicle: saline with Tween-80) and 119 % of control (dose: 120.0 mg/kg/injection, schedule: Q01DX005 (ip), vehicle: saline with Tween-80).
As for `Cn1c2ccccc2c2oc(CO)cc(=O)c21`, the T/C under setting [9] was 95 % of control, the T/C under setting [10] is 89 % of control and the T/C under setting [11] was 91 % of control.
For the molecule `CC(Cl)CN1COc2ccc3ccc4c(c3c2C1)CN(CC(C)Cl)CO4` (stereo not drawn), the T/C is 106 % of control and 107 % of control and 117 % of control under setting [6]; 107 % of control and 112 % of control and 123 % of control under setting [7]; 117 % of control and 124 % of control under setting [8]; 116 % of control (dose: 400.0 mg/kg/injection, schedule: Q01DX005 (ip), vehicle: Klucel (hydroxypropylcellulose) (HPC)).
